Here are results for one molecule from article PMC8034656 (2021).

The subject of this assay is single oligonucleotide with a low probability of self-hybridization (ssDNA) (DNA, single strand) GAACAACGCTCCAACCATCGC
In words: absorption and fluorescence titration. To be noted: 3 µM DOX; absorption changes, fluorescence hardly quenched.

On to `COc1cccc2c1C(=O)c1c(O)c3c(c(O)c1C2=O)C[C@@](O)(C(=O)CO)C[C@@H]3O[C@H]1C[C@H](N)[C@H](O)[C@H](C)O1`, for which the binding result is “weak”.
